# Measured values: ChEMBL document CHEMBL1146649, “New highly active taxoids from 9 beta-dihydrobaccatin-9,10-acetals. Part 5” (2004)
# What was measured:
# [1] = tested on: Mus musculus; assay: Maximum rate of body weight loss after intravenous administration of 12.0 mg/kg of compound in mice; <0 indicates no body weight loss; assay type: functional
# [2] = tested on: Mus musculus; assay: Maximum rate of body weight loss after peroral administration of 12.0 mg/kg of compound in mice; <0 indicates no body weight loss; assay type: functional; details: route oral
# [3] = tested on: Mus musculus; assay: Maximum rate of body weight loss after peroral administration of 18.0 mg/kg of compound in mice; assay type: functional; details: route oral
# [4] = tested on: Mus musculus; assay: Maximum rate of body weight loss after peroral administration of 27.0 mg/kg of compound in mice; assay type: functional; details: route oral
# [5] = tested on: Mus musculus; assay: Maximum rate of body weight loss after peroral administration of 8.0 mg/kg of compound in mice; <0 indicates no body weight loss; assay type: functional; details: route oral
# [6] = tested on: Mus musculus; assay: Antitumor activity of 12.0 mg/kg of intravenously administered compound against B16 melanoma BL6 cells implanted into mice, value reported is percent compared to control; assay type: functional; details: route intravenous
# [7] = tested on: Mus musculus; assay: Antitumor activity of 12.0 mg/kg of perorally administered compound against B16 melanoma BL6 cells implanted into mice, value reported is percent compared to control; assay type: functional; details: route oral
# [8] = tested on: Mus musculus; assay: Antitumor activity of 18.0 mg/kg of intravenously administered compound against B16 melanoma BL6 cells implanted into mice, value reported is percent compared to control; assay type: functional; details: route intravenous
# [9] = tested on: Mus musculus; assay: Antitumor activity of 18.0 mg/kg of perorally administered compound against B16 melanoma BL6 cells implanted into mice, value reported is percent compared to control; assay type: functional; details: route oral
# [10] = tested on: Mus musculus; assay: Antitumor activity of 27.0 mg/kg of perorally administered compound against B16 melanoma BL6 cells implanted into mice, value reported is percent compared to control; assay type: functional; details: route oral
# [11] = tested on: Mus musculus; assay: Antitumor activity of 5.3 mg/kg of intravenously administered compound against B16 melanoma BL6 cells implanted into mice, value reported is percent compared to control; assay type: functional; details: route intravenous
# [12] = tested on: Mus musculus; assay: Antitumor activity of 8.0 mg/kg of intravenously administered compound against B16 melanoma BL6 cells implanted into mice, value reported is percent compared to control; assay type: functional; details: route intravenous
# [13] = tested on: Mus musculus; assay: Antitumor activity of 8.0 mg/kg of perorally administered compound against B16 melanoma BL6 cells implanted into mice, value reported is percent compared to control; assay type: functional; details: route oral
# [14] = tested on: Mus musculus; assay: Maximum rate of body weight loss after intravenous administration of 18.0 mg/kg of compound in mice; assay type: functional
# [15] = tested on: Mus musculus; assay: Maximum rate of body weight loss after intravenous administration of 5.3 mg/kg of compound in mice; <0 indicates no body weight loss; assay type: functional
# [16] = tested on: Mus musculus; assay: Maximum rate of body weight loss after intravenous administration of 8.0 mg/kg of compound in mice; <0 indicates no body weight loss; assay type: functional
# [17] = tested on: Mus musculus; assay: Effective dose of intravenously administered compound against B16 melanoma BL6 cells implanted into mice; range is 5.3-18.0; assay type: functional; details: B16, iv
# [18] = tested on: Mus musculus; assay: Effective dose of perorally administered compound against B16 melanoma BL6 cells implanted into mice; range is 12.0-27.0; assay type: functional; details: B16, po
# [19] = tested on: Mus musculus; assay: Number of mice died at 12.0 mg/kg of intravenous dose of compound among the total 6 mice tested; assay type: functional
# [20] = tested on: Mus musculus; assay: Number of mice died at 12.0 mg/kg of peroral dose of compound among the total 6 mice tested; assay type: functional; details: route oral
# [21] = tested on: Mus musculus; assay: Number of mice died at 18.0 mg/kg of intravenous dose of compound among the total 6 mice tested; assay type: functional
# [22] = tested on: Mus musculus; assay: Number of mice died at 18.0 mg/kg of peroral dose of compound among the total 6 mice tested; assay type: functional; details: route oral
# [23] = tested on: Mus musculus; assay: Number of mice died at 27.0 mg/kg of peroral dose of compound among the total 6 mice tested; assay type: functional; details: route oral
# [24] = tested on: Mus musculus; assay: Number of mice died at 5.3 mg/kg of intravenous dose of compound among the total 6 mice tested; assay type: functional
# [25] = tested on: Mus musculus; assay: Number of mice died at 8.0 mg/kg of intravenous dose of compound among the total 6 mice tested; assay type: functional
# [26] = tested on: Mus musculus; assay: Number of mice died at 8.0 mg/kg of peroral dose of compound among the total 6 mice tested; assay type: functional; details: route oral
# [27] = tested on: P388; assay: Concentration required to inhibit mouse P388 cell line growth by 50% at 72 hr continuous exposure; assay type: functional; details: P388, 72 h
# [28] = tested on: PC-6; assay: Concentration required to inhibit human PC-6 cell line growth by 50% at 72 hr continuous exposure; assay type: functional; details: PC-6, 72 h
# [29] = tested on: PC-6; assay: Concentration required to inhibit human PC-6/VP1-1 cell line growth by 50% at 72 hr exposure; assay type: functional; details: PC-6, 72 h
# [30] = tested on: PC-12; assay: Concentration required to inhibit human PC-12 cell line growth by 50% at 72 hr continuous exposure; assay type: functional; details: PC-12, 72 h
# [31] = tested on: PC-6; assay: Concentration required to inhibit human PC-6/VCR29-9 cell line growth by 50% at 72 hr exposure; assay type: functional; details: PC-6, 72 h
# [32] = tested on: Mus musculus; assay: Maximum rate of body weight loss after intravenous administration of 11.9 mg/kg of compound in mice; assay type: functional
# [33] = tested on: Mus musculus; assay: Maximum rate of body weight loss after peroral administration of 17.8 mg/kg of compound in mice; assay type: functional; details: route oral
# [34] = tested on: Mus musculus; assay: Maximum rate of body weight loss after peroral administration of 7.9 mg/kg of compound in mice; <0 indicates no weight loss; assay type: functional; details: route oral
# [35] = tested on: B16; assay: Antitumor activity of 11.9 mg/kg of intravenously administered compound against B16 melanoma BL6 cells implanted into mice, value reported is percent compared to control; assay type: functional, Mus musculus; details: route intravenous
# [36] = tested on: B16; assay: Antitumor activity of 11.9 mg/kg of perorally administered compound against B16 melanoma BL6 cells implanted into mice, value reported is percent compared to control; assay type: functional, Mus musculus; details: route oral
# [37] = tested on: B16; assay: Antitumor activity of 17.8 mg/kg of perorally administered compound against B16 melanoma BL6 cells implanted into mice, value reported is percent compared to control; assay type: functional, Mus musculus; details: route oral
# [38] = tested on: Mus musculus; assay: Antitumor activity of 7.8 mg/kg of intravenously administered compound against B16 melanoma BL6 cells implanted into mice, value reported is percent compared to control; assay type: functional; details: route intravenous
# [39] = tested on: Mus musculus; assay: Antitumor activity of 7.9 mg/kg of perorally administered compound against B16 melanoma BL6 cells implanted into mice, value reported is percent compared to control; assay type: functional; details: route oral
# [40] = tested on: Mus musculus; assay: Maximum rate of body weight loss after intravenous administration of 5.3 mg/kg of compound in mice; <0 indicates no weight loss; assay type: functional
# [41] = tested on: Mus musculus; assay: Maximum rate of body weight loss after intravenous administration of 7.8 mg/kg of compound in mice; assay type: functional
# [42] = tested on: Mus musculus; assay: Maximum rate of body weight loss after peroral administration of 11.9 mg/kg of compound in mice; assay type: functional; details: route oral
# [43] = tested on: Mus musculus; assay: Effective dose of intravenously administered compound against B16 melanoma BL6 cells implanted into mice; range is 7.8-11.9; assay type: functional; details: B16, iv
# [44] = tested on: Mus musculus; assay: Effective dose of perorally administered compound against B16 melanoma BL6 cells implanted into mice; range is 11.9-17.8; assay type: functional; details: B16, po
# [45] = tested on: Mus musculus; assay: Number of mice died at 11.9 mg/kg of intravenous dose, among the total 6 mice tested; assay type: functional
# [46] = tested on: Mus musculus; assay: Number of mice died at 11.9 mg/kg of peroral dose, among the total 6 mice tested; assay type: functional; details: route oral
# [47] = tested on: Mus musculus; assay: Number of mice died at 17.8 mg/kg of intravenous dose among the total 6 mice tested; assay type: functional
# [48] = tested on: Mus musculus; assay: Number of mice died at 17.8 mg/kg of peroral dose among the total 6 mice tested; assay type: functional; details: route oral
# [49] = tested on: Mus musculus; assay: Number of mice died at 26.7 mg/kg of peroral dose of compound among the total 6 mice tested; assay type: functional; details: route oral
# [50] = tested on: Mus musculus; assay: Number of mice died at 7.8 mg/kg of intravenous dose of compound among the total 6 mice tested; assay type: functional
# [51] = tested on: Mus musculus; assay: Number of mice died at 7.9 mg/kg of peroral dose of compound among the total 6 mice tested; assay type: functional; details: route oral
smiles,measurement,setting,value
CC(=O)O[C@@]12CO[C@@H]1C[C@H](O)[C@@]1(C)[C@@H]3OC(CN4CCOCC4)O[C@@H]3C3=C(C)[C@@H](OC(=O)[C@H](O)[C@@H](NC(=O)OC(C)(C)C)c4ccccn4)C[C@@](O)([C@@H](OCc4ccccc4)[C@H]21)C3(C)C (stereo partly drawn),BWLmax,[1],<0%
same,BWLmax,[2],<0%
same,BWLmax,[3],0.3%
same,BWLmax,[4],4.5%
same,BWLmax,[5],<0%
same,IR,[6],94.4%
same,IR,[7],84.9%
same,IR,[8],95.6%
same,IR,[9],93.3%
same,IR,[10],97.3%
same,IR,[11],62.4%
same,IR,[12],87.2%
same,IR,[13],27.2%
same,BWLmax,[14],3.7%
same,BWLmax,[15],<0%
same,BWLmax,[16],<0%
same,ED50,[17],18 mg/kg
same,ED50,[18],27 mg/kg
same,Mortality,[19],0
same,Mortality,[20],0
same,Mortality,[21],0
same,Mortality,[22],0
same,Mortality,[23],0
same,Mortality,[24],0
same,Mortality,[25],0
same,Mortality,[26],0
same,GI50,[27],0.18 ng/mL
same,GI50,[28],0.26 ng/mL
same,GI50,[29],19.3 ng/mL
same,GI50,[30],0.13 ng/mL
same,GI50,[31],2.43 ng/mL
CC(=O)O[C@@]12CO[C@@H]1CC[C@@]1(C)[C@@H]3O[C@H](CN4CCOCC4)O[C@@H]3C3=C(C)[C@@H](OC(=O)[C@H](O)[C@@H](NC(=O)OC(C)(C)C)C(C)(C)C)C[C@@](O)([C@@H](OCc4ccccc4)[C@@H]12)C3(C)C,BWLmax,[32],10.5%
same,BWLmax,[33],11.7%
same,BWLmax,[34],<0%
same,IR,[35],93.8%
same,IR,[36],63.4%
same,IR,[37],90.3%
same,IR,[11],28.6%
same,IR,[38],71.9%
same,IR,[39],25.5%
same,BWLmax,[40],<0%
same,BWLmax,[41],<1.2%
same,BWLmax,[42],0.4%
same,ED50,[43],11.9 mg/kg
same,ED50,[44],17.8 mg/kg
same,Mortality,[45],0
same,Mortality,[46],0
same,Mortality,[47],6
same,Mortality,[48],0
same,Mortality,[49],6
same,Mortality,[24],0
same,Mortality,[50],0
same,Mortality,[51],0
same,GI50,[27],0.34 ng/mL
same,GI50,[28],0.7 ng/mL
same,GI50,[29],5.56 ng/mL
same,GI50,[30],0.13 ng/mL
same,GI50,[31],0.85 ng/mL
